Data from patent US9409888B2, “Dimeric compounds” (priority 2012, dated 2016).

Assays:
[1] = molecular target: BIR3 domain of XIAP (Homo sapiens (Human), UniProt P98170); experiment: TR-FRET assay for BIR3: inhibition of binding of XIAP BIR3 domain to Peptide A (SMAC-derived peptide); conditions: 6× His-tagged BIR3 domain (aa 241-356 of XIAP) 10 nM, Peptide A 20 nM
[2] = molecular target: BIR2 domain of XIAP (Homo sapiens (Human), UniProt P98170, C202A/C213G); experiment: TR-FRET assay for BIR2: inhibition of binding of XIAP BIR2 domain to Peptide A (SMAC-derived peptide); conditions: 6× His-tagged BIR2 domain (aa 124-240 of XIAP) 10 nM, Peptide A 20 nM
Description: TR-FRET Assay for BIR2 and BIR3
The peptides were labeled with the fluorescent tags FITC or TAMRA and Kd values were determined by fluorescence polarization assay. […] The peptide sequence was derivatized with biotin to provide […]-(ε-biotin)-OH 1:2 TFA as the substrate for the TR-FRET assay.
The XIAP protein sequence was obtained from the SWISS-PROT protein sequence database and the BIR2 and BIR3 domains were derived from that. The sequence of the BIR2 domain used for the TR-FRET assay is […].
Time-resolved fluorescence resonance energy transfer (TR-FRET) signals were measured 1 hour later at room temperature. Test compound potency was assessed at 10 serially diluted concentrations. Percentage of inhibition at each concentration was determined to generate an IC50 value for each test compound.

Chain of BIR3 domain of XIAP (P98170 other isoform, or with tags, fused parts or gaps): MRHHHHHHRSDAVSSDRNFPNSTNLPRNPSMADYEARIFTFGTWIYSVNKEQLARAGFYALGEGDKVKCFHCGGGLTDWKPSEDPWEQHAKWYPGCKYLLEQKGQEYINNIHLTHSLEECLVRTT
Chain of BIR2 domain of XIAP (P98170 other isoform, or with tags, fused parts or gaps, stated change not applied): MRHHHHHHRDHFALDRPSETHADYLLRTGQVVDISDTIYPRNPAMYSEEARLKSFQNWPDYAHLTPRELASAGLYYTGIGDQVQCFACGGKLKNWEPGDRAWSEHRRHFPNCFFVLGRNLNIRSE

Row | IC50 [1] [nM] | IC50 [2] [nM] | Compound
1 | > 5480 | 1.32 | CN[C@@H](C)C(=O)N[C@H]1CN(C(=O)c2cncc(C(=O)N3C[C@H](NC(=O)[C@H](C)NC)C(=O)N(Cc4c(OC)ccc5cc(Br)ccc45)c4ccccc43)c2)c2ccccc2N(Cc2c(OC)ccc3cc(Br)ccc23)C1=O [Ex 8, (2S)-N-[(3S)-5-[(6-Bromo-2-methoxy-1-naphthyl)methyl]-1-[5-[(3S)-5-[(6-bromo-2-methoxy-1-naphthyl)methyl]-3-[[(2S)-2-(methylamino)propanoyl]amino]-4-oxo-2,3-dihydro-1,5-benzodiazepine-1-carbonyl]pyridine-3-carbonyl]-4-oxo-2,3-dihydro-1,5-benzodiazepin-3-yl]-2-(methylamino)propanamide]
2 | > 5480 | 1.38 | CN[C@@H](C)C(=O)N[C@H]1CN(C(=O)c2ccc(C(=O)N3C[C@H](NC(=O)[C@H](C)NC)C(=O)N(Cc4c(OC)ccc5cc(Br)ccc45)c4ccccc43)c(C)c2)c2ccccc2N(Cc2c(OC)ccc3cc(Br)ccc23)C1=O [Ex 10, (2S)-N-[(3S)-5-[(6-Bromo-2-methoxy-1-naphthyl)methyl]-1-[4-[(3S)-5-[(6-bromo-2-methoxy-1-naphthyl)methyl]-3-[[(2S)-2-(methylamino)propanoyl]amino]-4-oxo-2,3-dihydro-1,5-benzodiazepine-1-carbonyl]-3-methyl-benzoyl]-4-oxo-2,3-dihydro-1,5-benzodiazepin-3-yl]-2-(methylamino)propanamide]
3 | > 5480 | 0.801 | CN[C@@H](C)C(=O)N[C@H]1CN(C(=O)c2cc(C)c(C(=O)N3C[C@H](NC(=O)[C@H](C)N)C(=O)N(Cc4c(OC)ccc5cc(Br)ccc45)c4ccccc43)cc2C)c2ccccc2N(Cc2c(OC)ccc3cc(Br)ccc23)C1=O [Ex 13, (2S)-2-Amino-N-[(3S)-5-[(6-bromo-2-methoxy-1-naphthyl)methyl]-1-[4-[(3S)-5-[(6-bromo-2-methoxy-1-naphthyl)methyl]-3-[[(2S)-2-(methylamino)propanoyl]amino]-4-oxo-2,3-dihydro-1,5-benzodiazepine-1-carbonyl]-2,5-dimethyl-benzoyl]-4-oxo-2,3-dihydro-1,5-benzodiazepin-3-yl]propanamide]
4 | > 5480 | 0.871 | CN[C@@H](C)C(=O)N[C@H]1CN(C(=O)CCCCCCC(=O)N2C[C@H](NC(=O)[C@H](C)NC)C(=O)N(Cc3c(OC)ccc4cc(Br)ccc34)c3ccccc32)c2ccccc2N(Cc2c(OC)ccc3cc(Br)ccc23)C1=O [Ex 18, (2S)-N-[(3S)-5-[(6-Bromo-2-methoxy-1-naphthyl)methyl]-1-[8-[(3S)-5-[(6-bromo-2-methoxy-1-naphthyl)methyl]-3-[[(2S)-2-(methylamino)propanoyl]amino]-4-oxo-2,3-dihydro-1,5-benzodiazepin-1-yl]-8-oxo-octanoyl]-4-oxo-2,3-dihydro-1,5-benzodiazepin-3-yl]-2-(methylamino)propanamide]
